Where a chain is given by its changes, count along the chain named.

For assay [1], the target named is T1, wild-type PepT1 (Oryctolagus cuniculus, UniProt P36836).
T1 construct: expressed in transfected cells; host or cells: Xenopus laevis oocytes injected with cRNA
T1 sequence (P36836 1-707): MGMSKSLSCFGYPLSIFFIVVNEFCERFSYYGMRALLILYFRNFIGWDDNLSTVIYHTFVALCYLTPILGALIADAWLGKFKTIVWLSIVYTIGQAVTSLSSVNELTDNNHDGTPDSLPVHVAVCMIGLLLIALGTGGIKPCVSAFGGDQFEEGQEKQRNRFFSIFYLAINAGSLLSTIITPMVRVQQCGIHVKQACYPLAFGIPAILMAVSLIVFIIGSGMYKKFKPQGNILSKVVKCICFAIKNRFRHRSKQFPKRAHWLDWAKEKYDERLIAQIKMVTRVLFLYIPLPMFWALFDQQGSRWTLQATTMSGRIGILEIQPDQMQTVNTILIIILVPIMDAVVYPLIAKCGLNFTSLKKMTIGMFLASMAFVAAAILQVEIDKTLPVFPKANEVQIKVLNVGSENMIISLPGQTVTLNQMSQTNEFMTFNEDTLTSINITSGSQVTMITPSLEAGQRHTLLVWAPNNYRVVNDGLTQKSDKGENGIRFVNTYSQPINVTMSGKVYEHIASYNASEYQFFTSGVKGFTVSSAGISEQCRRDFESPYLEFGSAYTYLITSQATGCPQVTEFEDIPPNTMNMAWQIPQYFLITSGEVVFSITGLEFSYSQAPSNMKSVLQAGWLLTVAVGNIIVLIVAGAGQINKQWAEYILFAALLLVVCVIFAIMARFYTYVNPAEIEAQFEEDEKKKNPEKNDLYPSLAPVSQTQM
The experiment in a line: Membrane potential of oocytes expressing wild-type PepT1 (single microelectrode). Type of assay: cell-based, rabbit. The conditions noted are these: 10 mM, pHout 5.5, 1 min. How it is done: (§1) Measurements of membrane potential were made by impaling oocytes with a single glass microelectrode (Intra 767 amplifier, WPI, Stevenage, Hertfordshire, UK) perfused in uptake medium (as above) with or without 0.4 μM D-Phe-L-Gln (synthesised in house), 0.6 mM Gly-L-Gln (Sigma, Poole, UK) or 10 mM 4-aminobenzoic acid (4-AMBA, Sigma). Two-electrode voltage clamp (TEVC) was performed by placing oocytes in a 0.1 ml recording chamber and perfusing with uptake solution (pH 5.5 or 7.4) at a rate of 15 ml/min. Oocytes were impaled by two agarose-cushioned microelectrodes filled with 3 M KCl (0.5–2.0 MΩ) and voltage-clamped at −60 mV using a Geneclamp 500B amplifier and PCLAMP 8.1 software (Axon Instruments, CA, USA). The holding potential was stepped from −60 mV over the range of −150 to +50 mV in 10 mV steps, each pulse lasting 100 ms, and returning to −60 mV in between test voltage pulses. Typically traces were filtered at 1 kHz during recording and digitized at 0.5–5 kHz using the DigiData 1200 interface (Axon Instruments, CA, USA). All experiments were carried out at room temperature.

Another assay deals with T2, R282E-PepT1 (Oryctolagus cuniculus, UniProt P36836, R282E).
T2 construct: expressed in transfected cells; host or cells: Xenopus laevis oocytes injected with cRNA
T2 sequence (P36836 1-707 R282E): T1 sequence (P36836 1-707) with R282E
The experiment in a line: Membrane potential of oocytes expressing R282E-PepT1 (single microelectrode). Type of assay: cell-based, rabbit. The conditions noted are these: 10 mM, pHout 5.5, 1 min. How it is done: as §1

For assay [2], the target named is T1, wild-type PepT1. The experiment in a line: Diethylpyrocarbonate inhibition of PepT1-mediated dipeptide uptake and protection by substrates. Conditions: for protection of PepT1 from DEPC inhibition: 5 mM present during 1 mM DEPC incubation (15 min), uptake measured over 1 h. Type of assay: cell-based, rabbit. How it is done:
(§2) Zero-trans uptake of [^3H]-D-Phe-L-Gln (17.4 Ci/mmole, custom synthesised, Cambridge Research Biochemicals, Stockton-on-Tees, UK) was performed as previously described ([Meredith, 2004]). Briefly, 5 oocytes were incubated in 100 μl of uptake medium (95 mM NaCl, 2 mM KCl, 1 mM CaCl2, 0.42 mM MgCl2, 10 mM Tris/Hepes pH 7.4 or Tris/Mes pH 5.5) with tracer (0.4 μM) [^3H]-D-Phe-L-Gln. After incubation, the oocytes were washed sequentially five times in 1 ml of ice-cold 120 mM NaCl solution, lysed individually with 100 μl 2% (w/v) SDS and liquid scintillation counted. As a control non-injected oocytes were also incubated in uptake medium with [^3H]-D-Phe-L-Gln as above.
Diethylpyrocarbonate (DEPC) inhibition of PepT1 was performed using a similar protocol to that of [Terada, Saito, and Inui (1998)]. Briefly, PepT1 oocytes were preincubated with 1 mM DEPC for 15 min at pHout 5.5 in the absence or presence of the PepT1 substrates Gly-L-Gln, N-Acetyl-Phe ([Meredith et al., 2000]), and L-Ala-Tyramine (custom synthesised) and the non-substrate Tyr (all 5 mM). The oocytes were then washed in uptake medium before uptake assays were performed as detailed above.

The target of a further assay is T3, wild-type rabbit PepT1 (Oryctolagus cuniculus, UniProt P36836).
T3 construct: expressed in transfected cells; host or cells: Xenopus laevis oocytes injected with cRNA
T3 sequence (P36836 1-707): T1 sequence (P36836 1-707)
The experiment in a line: Inhibition of [3H]-D-Phe-L-Gln uptake into Xenopus oocytes expressing wild-type PepT1 (competition, Ki). Type of assay: cell-based. Conditions: PepT1, data not shown; read-out: Ki (PepT1 substrate). The procedure: as §2
The affinity of wild-type and mutant PepT1 were assessed by competition studies with 0.4 μM [^3H]-D-Phe-L-Gln and Gly-L-Gln present in the uptake medium in concentrations from 0 to 2 mM using the protocol above, and the Ki calculated using the method of [Deves and Boyd (1989)].

For the compound `Nc1ccc(C(=O)O)cc1` [4-AMBA, 4-aminobenzoic acid], the membrane potential depolarisation result at wild-type PepT1 [1] and at R282E-PepT1 was “failed to induce a depolarisation” throughout.
Consider `CC(=O)NC(Cc1ccccc1)C(=O)O` (stereo not shown) [N-Acetyl-Phe], for which, at wild-type PepT1 [2], the “protection of PepT1 from DEPC inhibition” value is “largely prevented”.
As for `CCOC(=O)OC(=O)OCC` [DEPC, Diethylpyrocarbonate], the “inhibition of PepT1 mediated dipeptide uptake” value on wild-type PepT1 [2] (1 mM, 15 min preincubation, pHout 5.5, uptake measured over 1 h) is on record as “completely inhibited”.
As to `N[C@@H](Cc1ccc(O)cc1)C(=O)O` [Tyr], the “protection of PepT1 from DEPC inhibition” value on wild-type PepT1 [2] was “not”.
As to `C[C@H](N)C(=O)NCCc1ccc(O)cc1` [L-Ala-Tyramine], on wild-type rabbit PepT1, the Ki was around 100 µM. The “protection of PepT1 from DEPC inhibition” value at wild-type PepT1 [2] is reported as “only partially prevented”.

These data come from paper PMC2267855, “Site-directed mutagenesis of Arginine282 suggests how protons and peptides are co-transported by rabbit PepT1” (The International Journal of Biochemistry & Cell Biology, 2008).
